Where two headings read alike, the source gives them in different places.
Experiments:
[1] = molecular target: S1P1 E^121A mutant (Homo sapiens, UniProt P21453, E121A); assay type: cell-based; details: for EC50: without W146
[2] = molecular target: S1P1 R^120A mutant (Homo sapiens, UniProt P21453, R120A); assay type: cell-based; details: for Emax: CHO-K1; for EC50: without W146
[3] = molecular target: human wild-type S1P1 (WT) (Homo sapiens, UniProt P21453); assay type: cell-based
[4] = Serum drug concentration in the lymphopenia studies; assay type: in vivo, C57BL6 mice; details: mice; for serum drug concentration (± SD): W146 20 mg/kg + CYM-5442 2 mg/kg group, 5 h
[5] = test system: blood lymphocytes (WBC, B220+, CD4+, CD8+); test: CYM-5442 mediated lymphopenia in mice; assay type: in vivo, C57BL6 mice; details: for B220^+ cells, percent relative to animals receiving both drug vehicles / CD4^+ cells, percent relative to animals receiving both drug vehicles / CD8^+ cells, percent relative to animals receiving both drug vehicles: W146 20 mg/kg i.p. 30 min before, CYM-5442 2 mg/kg
[6] = molecular target: T1, human S1P1-GFP (Homo sapiens, UniProt P21453); test: S1P1-GFP internalization in HEK293 cells; assay type: cell-based
T1 sequence (P21453 whole entry): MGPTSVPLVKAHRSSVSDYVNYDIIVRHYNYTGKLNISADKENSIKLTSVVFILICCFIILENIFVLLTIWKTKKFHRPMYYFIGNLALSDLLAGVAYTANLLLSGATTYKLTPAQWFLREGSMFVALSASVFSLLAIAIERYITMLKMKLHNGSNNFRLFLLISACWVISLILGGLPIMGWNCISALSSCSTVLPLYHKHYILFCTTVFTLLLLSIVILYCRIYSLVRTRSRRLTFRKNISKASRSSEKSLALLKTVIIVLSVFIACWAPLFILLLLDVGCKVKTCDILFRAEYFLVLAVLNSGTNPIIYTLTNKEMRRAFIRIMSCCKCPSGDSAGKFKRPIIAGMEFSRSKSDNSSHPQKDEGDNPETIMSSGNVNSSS

[7] = molecular target: T1, human S1P1-GFP; test: S1P1-GFP phosphorylation, P^32-orthophosphate labeled HEK293 cells; assay type: cell-based
[8] = molecular target: T1, human S1P1-GFP; test: S1P1-GFP ubiquitination in HEK293 cells; assay type: cell-based
[9] = molecular target: human S1P1 (Homo sapiens, UniProt P21453); assay type: cell-based
human S1P1, sequence (P21453 whole entry): as above

[10] = Water solubility; assay type: physicochemical
[11] = Brain exposure in C57Bl6 mice; assay type: in vivo; details: C57Bl6, mouse, ip, 10 mg/kg
[12] = Pharmacokinetics in Sprague Dawley rats; assay type: in vivo; details: rat
[13] = molecular target: human S1P5 (Homo sapiens, UniProt Q9H228); test: S1P5 agonist format, TANGO S1P5-bla U2OS cells; assay type: cell-based
human S1P5, sequence (Q9H228 whole entry): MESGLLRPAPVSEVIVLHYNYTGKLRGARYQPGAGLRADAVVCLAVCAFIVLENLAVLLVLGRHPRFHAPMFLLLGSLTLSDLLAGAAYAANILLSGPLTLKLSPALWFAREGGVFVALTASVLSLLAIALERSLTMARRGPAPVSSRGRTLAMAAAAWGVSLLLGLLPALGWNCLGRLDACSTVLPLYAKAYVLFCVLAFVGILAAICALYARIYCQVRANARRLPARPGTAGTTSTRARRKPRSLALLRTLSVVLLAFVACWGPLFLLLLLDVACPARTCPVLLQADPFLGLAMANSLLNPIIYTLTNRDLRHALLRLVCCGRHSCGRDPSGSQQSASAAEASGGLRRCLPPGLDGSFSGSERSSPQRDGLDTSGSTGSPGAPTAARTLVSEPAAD

[14] = EC50, activation of p42/p44 MAPK phosphorylation, WT, without W146
[15] = Sprague Dawley, plasma, iv, 1 mg/kg
[16] = Sprague Dawley, plasma, po, 2 mg/kg

S1P1 E^121A mutant, sequence (P21453 whole entry E121A): as the sequence (P21453 whole entry) above, with E121A counted along it
human wild-type S1P1 (WT), sequence (P21453 whole entry): as the sequence (P21453 whole entry) above
S1P1 R^120A mutant, sequence (P21453 whole entry R120A): as the sequence (P21453 whole entry) above, with R120A counted along it

CCCCCCCCCCCCC/C=C/[C@@H](O)[C@@H](N)COP(=O)(O)O [S1P, Sphingosine-1 phosphate]
p42/p44 MAPK activation in the mutant ([1]; E^121A): did not lead to significant p42/p44 MAPK activation | Emax [2]: 25% | p42/p44 MAPK activity in the mutant ([2]; R^120A): near loss of p42/p44 MAPK activity | EC50 ([3]; EC50, activation of p42/p44 MAPK phosphorylation, WT, 10 μM W146 prior to agonist): 140 nM | EC50 [3, 14]: 2.3 nM | EC50 ([3]; LogEC50, WT, without W146, log EC50 printed negative, 5 min stimulation): 2.51 nM | rightward shift in potency by 10 μM W146 ([3]; WT, agonist with W146 vs agonist alone): 60 fold

N#CC(=C(/N)Sc1ccccc1N)/C(C#N)=C(/N)Sc1ccccc1N [U0126]
block of S1P and CYM-5442 stimulated P42/P44 MAPK phosphorylation ([3]; 10 μM pre-incubation): completely blocked

CCCCCCc1cccc(NC(=O)[C@H](N)CCP(=O)(O)O)c1 [W146, (R)-3-Amino-(3-hexylphenylamino)-4-oxobutylphosphonic acid, reference compound]
serum drug concentration (± SD) [4]: 1.76 ± 0.31 µM | reversal of CYM-5442 effects on B-220^+, CD4^+ and CD8^+ cell counts ([5]; W146 20 mg/kg 30 min before CYM-5442 2 mg/kg): partially recover | B220^+ cells, percent relative to animals receiving both drug vehicles ([5]; mice, 5 h): 114.7±5.9% | CD4^+ cells, percent relative to animals receiving both drug vehicles ([5]; mice, 5 h): 108.1 ±17.4% | CD8^+ cells, percent relative to animals receiving both drug vehicles ([5]; mice, 5 h): 112.2±19.6% | effect of antagonist alone on internalization [6]: did not have an effect on internalization | effect on internalization of S1P1-GFP by CYM-5442 ([6]; 10 μM preincubation): completely blocked | effect of antagonist alone on S1P1 phosphorylation ([7]; 10 μM): no effect | effect on CYM-5442-mediated S1P1 phosphorylation ([7]; 10 μM, 30 min pre-incubation): completely abolished | inhibition of CYM-5442-mediated p42/p44 MAPK phosphorylation ([3]; WT cells, 10 μM W146 preincubation): complete inhibition | effect on CYM-5442-stimulated S1P1 ubiquitination ([8]; pre-incubation 30 min): nearly abolish

CCOc1ccc(-c2nc(-c3cccc4c3CCC4NCCO)no2)cc1OCC (centres unmarked) [CYM-5442, 2-(4-(5-(3,4-diethoxyphenyl)-1,2,4-oxadiazol-3-yl)-2,3-dihydro-1H-inden-1-ylamino) ethanol]
EC50 [9]: 1.35 nM | agonist efficacy compared to SEW2871 ([9]; CRE reporter, agonist format): full agonist compared to SEW2871 | more potent than SEW2871 in vitro ([9]; depending on which agonist format was used): 10-50 fold | Emax ([9]; read-out: Agonist format (Emax)): 100% | water solubility [10]: moderately water-soluble | Emax ([1]; CHO-K1): 100% | rightward shift in potency by W146 preincubation ([1]; E^121A): 10 fold | EC50 ([1]; LogEC50, E^121A, log EC50 printed negative): 126 nM | EC50 ([1]; mean EC50, activation of p42/p44 MAPK, E^121A): 134 nM | serum drug concentration (± SD) [4]: 0.19 ± 0.04 µM | serum CYM-5442 concentration required for induction and maintenance of lymphopenia ([4]; i.p.): ~50 nM | concentration at 2 h ([11]; brain): 13.7 ± 2.9 µM | concentration at 2 h ([11]; plasma): 1.08 ± 0.3 µM | decrease of B-lymphocytes, of vehicle ([5]; abstract): 65% | decrease of T-lymphocytes, of vehicle ([5]; abstract): 85% | reduction of CD4^+, CD8^+ and B220^+ cell counts, of vehicle ([5]; mice, 2 mg/kg, 5 h): approximately 50% | decrease of B220^+ B-cells compared to vehicle ([5]; mice, 10 mg/kg i.p., 5 h): 63% | decrease of CD4^+ T-cell counts, of vehicle ([5]; mice, 10 mg/kg i.p., 5 h): 83% | decrease of CD8^+ T-cell counts, of vehicle ([5]; mice, 10 mg/kg i.p., 5 h): 84% | decrease of WBC counts vs. vehicle ([5]; mice, 10 mg/kg i.p., 5 h): 64% | % CD4^+ ([5]; mice, 10 mg/kg i.p., 5 h, vehicle 11.5±0.2): 1.9±0.2 % | WBC (K/mm^3) ([5]; mice, 10 mg/kg i.p., 5 h, vehicle 11.9±0.2): 4.3±0.4 K/mm^3 | % CD8^+ ([5]; mice, 10 mg/kg i.p., 5 h, vehicle 11.9±0.3): 1.9±0.4 % | % B220^+ ([5]; mice, 10 mg/kg i.p., 5 h, vehicle 40.5±0.6): 14.7±0.5 % | B220^+ cells, percent relative to animals receiving both drug vehicles ([5]; mice, 5 h): 46.0±18.1 % | CD4^+ cells, percent relative to animals receiving both drug vehicles ([5]; mice, 5 h): 53.5 ± 6.5 % | CD8^+ cells, percent relative to animals receiving both drug vehicles ([5]; mice, 5 h): 47.4±7.5 % | S1P1-GFP internalization ([6]; 500 nM): stimulated the internalization of S1P1-GFP receptor | S1P1 phosphorylation ([7]; 500 nM): stimulated S1P1 phosphorylation in a time-dependent manner | AUC [12, 15]: 0.57 ± 0.1 µM·h | Cmax [12, 15]: 220 ± 18 nM | MRT [12, 15]: 3.54 ± 0.38 h | Tmax [12, 15]: 4.98 min | clearance [12, 15]: 72.9 ± 11.7 mL/min/kg | half-life ([12]; Sprague Dawley, plasma, iv, 1 mg/kg, half-life (t1/2)): 50 min | half-life ([12]; Sprague Dawley, plasma, iv, 1 mg/kg, t1/2, rat, 1 mg/kg i.v.): 183 ± 22.2 min | bioavailability ([12]; Sprague Dawley, plasma, oral, 2 mg/kg): 20.5 ± 4.67% | AUC [12, 16]: 0.23 ± 0.053 µM·h | Cmax [12, 16]: 36 ± 7.2 nM | MRT [12, 16]: 6.35 ± 2.1 h | Tmax [12, 16]: 70.2 ± 45.6 min | half-life ([12]; Sprague Dawley, plasma, po, 2 mg/kg, half-life (t1/2), P.O.): 180 min | half-life ([12]; Sprague Dawley, plasma, po, 2 mg/kg, t1/2, rat, 2 mg/kg PO): 240 ± 87 min | AUC (% extrap,ob) ([12]; 1 mg/kg i.v.): 11.35 ± 14.20% | AUC (% extrap,ob) ([12]; 2 mg/kg PO): 27.80 ± 14.20% | Cl ([12]; 2 mg/kg PO): 360.1 ± 73.3 mL/min/kg | Emax [2]: 100% | EC50 ([2]; EC50, p42/p44 MAPK activity, R^120A): 67 nM | EC50 ([2]; LogEC50, R^120A, log EC50 printed negative): 63.1 nM | rightward shift in EC50 by 10 μM W146 ([2]; R^120A): 3 fold | Emax ([3]; CHO-K1): 70% | EC50 [3, 14]: 46 nM | selectivity for S1P1 over S1P5 [13]: 10,000 fold | Emax ([13]; U2OS, read-out: Agonist format (Emax)): 20% | S1P1-GFP receptor ubiquitination ([8]; 1 h incubation): stimulated receptor ubiquitination (UB-S1P1-GFP) to AFD-R levels

Reference: publication PMC2575047 (Molecular pharmacology, 2008)
